{"source": "patent US20040001834A1", "about": "“Phospholipase A2 enzyme, antibodies and inhibitors thereto” (priority 2002, published 2004)", "key": {"[1]": {"tested_on": "rPLA2", "assay": "rPLA2 enzyme activity assay with 2-[1-14C]AA-GPC substrate in the presence of inhibitors or divalent metal ions", "format": "biochemical, bovine", "settings": "for inhibition of rPLA2 activity: substrate 2-[1-14C]AA-GPC, 10 min; for effect on rPLA2 activity compared with cPLA2: comparison rPLA2 versus cPLA2", "experimental": "To verify the effect of known inhibitors on the activity of rPLA2, the various concentrations of inhibitors, i.e., DTT (dithiothtreitol), AACOCF3 (arachidonylfluoromethyl ketone) known as the cPLA2 inhibitor, mepacrine and methyl mercury, mercuric chloride known as the sPLA2 inhibitors were added to active pool from Mono Q column and reacted 2-[1-^14C]-AA-GPC as a substrate for 10 min. The comparative groups, cPLA2 and sPLA2, were subjected to in a same procedure.\nTo verify the effect of divalent metal ions on enzyme activity, to rPLA2 activity, various concentrations of divalent metal i.e., Zn^2+, Fe^2+, Cu^2+, Sr^2+, Ba^2+, Mn^2+ and Mg^2+ were added to active pool from Mono Q column and reacted 2-[1-^14C]-AA-GPC as a substrate for further 10 min. The comparative groups, cPLA2 and sPLA2, were subjected to in a same procedure.\nTo measure the functions of rPLA2 using inventive antibody, the supernatant obtained from above procedure was adopted to analyze the activity. PLA2 activity was measured in an assay system (100 μl) of 75 mM Tris-HCl (pH 7.5) containing […] of 2-[1-^14C]AA-GPC (110,000 cpm/4.5 nmol) mixed with 2-[1-^14C]AA-GPC, 4% glycerol, 5 mM CaCl2 and 0.2 % BSA.\nPrepared rPLA2 and cPLA2 and each inhibitor dissolved in 5 μl of DMSO solution was added and reacted for 10 min at 37° C. maintaining the temperature. 2-[1-^14C]AA-PC as a substrate was added and reacted for 10 min at 37° C. maintaining the temperature.\nTo verify the mechanism of inhibition, Dixon plot was constructed (FIG. 31)."}, "[2]": {"tested_on": "bovine RBCs", "assay": "[3H]AA release from labeled bovine RBCs", "format": "cell-based", "settings": "for inhibition of AA release by A23187 in bovine RBC: 50 μM of EA4, 20 min, then 2 μM A23187, 37 °C", "experimental": "(§1) Human venous blood was collected in heparin (40 unit/ml) from some healthy volunteers among the Korean graduate students in our laboratory and bovine blood freshly collected in heparin (40 unit/ml) in a local slaughterhouse. After blood was centrifuged at 500×g for 20 min, the resulting supernatants of the platelet-rich plasma, the buffy coat and the leading edge of the packed RBCs were completely removed by aspiration. Sedimented RBCs, leukocytes, and platelets were re-suspended in a sterile buffer (50 mM Tris-HCl, pH 7.5, 1 mM EDTA, 0.12 M NaCl). This centrifugation and aspiration cycle was repeated six times taking care of removing leukocytes and platelets and the top 10% of the RBCs suspensions. Washed cell suspensions (10 ml) were subsequently depleted of residual leukocytes and platelets by filtration through a Sepharose 4B-200 column (20×2.5 cm) pre-equilibrated with sterile saline (0.9% w/v NaCl) as described above.\n(§2) The Sepharose 4B-200 column-purified RBCs suspensions (approximately 1×10^9 cells/ml) were twice washed with serum-free MEM containing 1 mg/ml of fatty acid-free bovine serum albumin (BSA) and labeled for 1 hr with 1.5 mCi [^3H]AA (1 mCi/0.1 ml ethanol)/ml of the same medium. Murine L929 cells (1-2×10^6 cells/ml) were labeled for 6 hrs with 1.5 mCi [^3H]AA (1 mCi/0.1 ml ethanol)/ml of the same medium. Thereafter, cells were washed three times to remove all unincorporated [^3H]AA. […]\n(§3) For analysis of [^3H] AA release, at each time of 0, 10, 30, 60 and 90 min after reaction between the cell and A23187, the RBCs were centrifuged as above, and each aliquot (200 μl) of the supernatants for the RBCs and each aliquot (100 μl ) of the conditioned media for the L929 cells was transferred to 2.5 ml of the scintillation counting solution and counted for radioactivity with a Packard Tri-carb liquid β-scintillation counter (Packard Instrument Co., Meriden, Conn.). […]\n(§4) Cells were collected and centrifuged at the interval of 10 min. And the radioactivity was measured by scintillation counter."}, "[3]": {"tested_on": "human RBCs", "assay": "[3H]AA release from labeled human RBCs", "format": "cell-based", "settings": "for inhibition of AA release by A23187 in human RBC: 50 μM of EA4, 20 min, then 2 μM A23187, 37 °C", "experimental": "as §1, §2, §3, §4"}, "[4]": {"tested_on": "L929 cells", "assay": "[3H]AA release from labeled L929 cells", "format": "cell-based, murine", "settings": "50 μM of EA4, 20 min, then 2 μM A23187, 37 °C", "experimental": "The Sepharose 4B-200 column-purified RBCs suspensions (approximately 1×10^9 cells/ml) were twice washed with serum-free MEM containing 1 mg/ml of fatty acid-free bovine serum albumin (BSA) and labeled for 1 hr with 1.5 mCi [^3H]AA (1 mCi/0.1 ml ethanol)/ml of the same medium. Murine L929 cells (1-2×10^6 cells/ml) were labeled for 6 hrs with 1.5 mCi [^3H]AA (1 mCi/0.1 ml ethanol)/ml of the same medium. Thereafter, cells were washed three times to remove all unincorporated [^3H]AA. The labeled cells were incubated in MEM containing 1 mg/ml BSA as a trap for the released [^3H]AA and then stimulated with vehicle (0.1 μl ethanol/ml medium) or 2 μM of calcium ionophore A23187 at 37° C. And a control group is treated with vehicle only without A23187 compound.\nas §3, §4"}, "[5]": {"tested_on": "cPLA2", "assay": "cPLA2 enzyme activity assay with inhibitors (comparative group)", "format": "biochemical, porcine", "settings": "substrate 2-[1-14C]AA-PC, 10 min, 37° C.", "description": "Stearoyl-2-[1-^14C]arachidonyl-sn-glycerol-3-phosphocholine (2-[1-^14C]AA-GPC) (55.3 mCi/mmol), 1-palmitoyl-2-[1-^14C]palmitoyl-sn-glycerol-3-phosphocholine (2-[1-^14C]PA-GPC) (55.6 mCi/mmol), 1-palmitoyl-2-[1-^14C]linoleoyl-sn-glycerol-3-phosphocholine (2-[1-^14C]LA-GPC) (55.9 mCi/mmol), 1-acyl-2-[1-^14C]arachidonyl-sn-glycerol-3-phosphoethanolamine (2-[1-^14C]AA-GPE) (55.1 mCi/mmol) and [^3H]arachidonic acid (AA) (204 Ci/mmol) ([^3H]AA) were purchased from the radio-chemical center, Amersham Life Science Ltd. (Buckinghamshire, UK). 1-Stearoyl-2-arachidonyl-sn-glycerol-3-phosphocholine (2-AA-GPC), dithiothreitol (DTT), A23187, 3,3′-diaminobenzidine (DAB), methylcellulose, erythropoietin and Sepharose 4B-200 gel filtration column were purchased from Sigma Co. (St. Louis, Mo.). Anti-human secretory 14 kDa sPLA2 antibody was purchased from Upstate Biotechnology, Inc. (Lake Placid, N.Y.). Goat anti-rabbit- and anti-mouse-alkaline phosphatase conjugates were purchased from Santa Cruz Biotechnology Inc., Santa Cruz, Calif. Group IV cytosolic PLA2 (cPLA2) was purified from porcine spleen and anti-cPLA2 polyclonal antibody was generated as described above(Kim, D. K., and Bonventure, J. V., Biochem. J., 294, 261-270, 1993). Group II secretory PLA2 (sPLA2) was partially purified from bovine platelets as described above (Hara, S et al., J. biochem., 105, 395-399, 1989). […]"}, "[6]": {"settings": "2 μM A23187, 37° C., 0-90 min, time-dependent"}}, "note": "“Also recorded” adds a separate entry of the source.", "data": [{"smiles": "O[C@H](CS)[C@H](O)CS", "note": "(racemic) [DTT, dithiothreitol, reference compound]", "values": [{"measurement": "inhibition of rPLA2 activity", "setting": "[1]", "value": "not inhibited"}]}, {"smiles": "CNc1ccc2oc(C[C@H]3O[C@@]4(CC[C@H]3C)O[C@H]([C@H](C)C(=O)c3ccc[nH]3)[C@H](C)C[C@H]4C)nc2c1C(=O)O", "note": "[A23187, reference compound]", "values": [{"measurement": "release of [3H]AA from bovine RBCs", "setting": "[2]; [6]", "value": "released"}, {"measurement": "release of [3H]AA from human RBCs", "setting": "[3]; [6]", "value": "released"}]}, {"smiles": "[Ba+2]", "note": "[Ba^2+]", "values": [{"measurement": "activation of rPLA2 activity by divalent metal cation", "setting": "[1]", "value": "activated"}]}, {"smiles": "[Cu+2]", "note": "[Cu^2+]", "values": [{"measurement": "activation of rPLA2 activity by divalent metal cation", "setting": "[1]", "value": "activated"}]}, {"smiles": "CCN(CC)c1ccc(C2=C(Cl)C(=O)c3ncccc3C2=O)cc1", "note": "[EA4, 7-chloro-6-[4-(diethylamine)phenyl]-5,8-quinolinedione]", "values": [{"measurement": "inhibition of AA release by A23187 in bovine RBC", "setting": "[2]", "value": "significantly inhibited; also recorded: inhibits the release"}, {"measurement": "inhibition of AA release in L929 cells", "setting": "[4]", "value": "inhibited"}, {"measurement": "inhibitory pattern on rPLA2", "setting": "[1]; Dixon plot", "value": "competitive; also recorded: competitively"}, {"measurement": "Ki", "setting": "[1]; Dixon plot, competitive inhibition, read-out: inhibition constant (Ki) for rPLA2", "value": 130, "unit": "µM"}, {"measurement": "inhibition of rPLA2 activity", "setting": "[1]", "value": "inhibited"}, {"measurement": "inhibition of AA release by A23187 in human RBC", "setting": "[3]", "value": "significantly inhibited"}, {"measurement": "inhibition of cPLA2 activity", "setting": "[5]", "value": "inhibited; also recorded: inhibits the activity of cPLA2"}]}, {"smiles": "[Fe+2]", "note": "[Fe^2+]", "values": [{"measurement": "activation of rPLA2 activity by divalent metal cation", "setting": "[1]", "value": "activated"}]}, {"smiles": "[Mg+2]", "note": "[Mg^2+]", "values": [{"measurement": "activation of rPLA2 activity by divalent metal cation", "setting": "[1]", "value": "activated"}]}, {"smiles": "[Mn+2]", "note": "[Mn^2+]", "values": [{"measurement": "activation of rPLA2 activity by divalent metal cation", "setting": "[1]", "value": "activated"}]}, {"smiles": "[Sr+2]", "note": "[Sr^2+]", "values": [{"measurement": "activation of rPLA2 activity by divalent metal cation", "setting": "[1]", "value": "activated"}]}, {"smiles": "CC(C)(C)c1cc(C2=C(Cl)C(=O)c3ccccc3C2=O)cc(C(C)(C)C)c1O", "note": "[TP1, 2-(3,5-Di-tert-butyl-4-hydroxyphenyl)-3-chloro-1,4-naphthalene dione, reference compound]", "values": [{"measurement": "inhibition of AA release by A23187 in bovine RBC", "setting": "[2]", "value": "not inhibited"}, {"measurement": "inhibition of AA release in L929 cells", "setting": "[4]", "value": "inhibited"}, {"measurement": "inhibition of rPLA2 activity", "setting": "[1]", "value": "inhibited that of cPLA2 only; also recorded: not inhibited"}, {"measurement": "inhibition of AA release by A23187 in human RBC", "setting": "[3]", "value": "not inhibited"}, {"measurement": "inhibition of cPLA2 activity", "setting": "[5]", "value": "inhibited"}]}, {"smiles": "[Zn+2]", "note": "[Zn^2+]", "values": [{"measurement": "activation of rPLA2 activity by divalent metal cation", "setting": "[1]", "value": "activated"}]}, {"smiles": "CCN(CC)CCCC(C)Nc1c2ccc(Cl)cc2nc2ccc(OC)cc12", "note": "(stereo not drawn) [mepacrine, reference compound]", "values": [{"measurement": "inhibition of rPLA2 activity", "setting": "[1]", "value": "not inhibited"}]}, {"smiles": "[Cl][Hg][Cl]", "note": "[mercuric chloride, reference compound]", "values": [{"measurement": "effect on rPLA2 activity compared with cPLA2", "setting": "[1]", "value": "different profile from cPLA2"}, {"measurement": "inhibition of rPLA2 activity", "setting": "[1]", "value": "not inhibited"}]}, {"smiles": "[CH3][Hg][Cl]", "note": "[methyl mercury, reference compound]", "values": [{"measurement": "effect on rPLA2 activity compared with cPLA2", "setting": "[1]", "value": "less effective activity than cPLA2"}, {"measurement": "inhibition of rPLA2 activity", "setting": "[1]", "value": "not inhibited"}]}]}
